One assay has as its target Trypsin (Homo sapiens, UniProt P07477+P07478+P35030). Nature of the assay: Inhibition of trypsin (unknown origin) using Bz-FVRpNA as substrate incubated for 30 mins measured for 7 mins by morrison plot analysis. The class given is protein assay.
For a further assay, the target named is Coagulation factor XI (Homo sapiens, UniProt P03951). Nature of the assay: Inhibition of factor 11a (unknown origin) using Bz-FVRpNA as substrate incubated for 30 mins measured for 7 mins by morrison plot analysis.
A further assay concerns the target Plasma kallikrein (Homo sapiens, UniProt P03952). Nature of the assay: Inhibition of human plasma kallikrein using Ac-RM(O2)YRpNA as substrate incubated for 30 mins measured for 7 mins by morrison plot analysis.
The target in another assay is Coagulation factor IX (Homo sapiens, UniProt P00740). Nature of the assay: Inhibition of factor 9a (unknown origin) using Ac-QGRpNA as substrate incubated for 30 mins measured for 7 mins by morrison plot analysis.
The target of the next assay is T1, Coagulation factor XII (Homo sapiens, UniProt P00748).
T1 sequence (P00748 whole entry): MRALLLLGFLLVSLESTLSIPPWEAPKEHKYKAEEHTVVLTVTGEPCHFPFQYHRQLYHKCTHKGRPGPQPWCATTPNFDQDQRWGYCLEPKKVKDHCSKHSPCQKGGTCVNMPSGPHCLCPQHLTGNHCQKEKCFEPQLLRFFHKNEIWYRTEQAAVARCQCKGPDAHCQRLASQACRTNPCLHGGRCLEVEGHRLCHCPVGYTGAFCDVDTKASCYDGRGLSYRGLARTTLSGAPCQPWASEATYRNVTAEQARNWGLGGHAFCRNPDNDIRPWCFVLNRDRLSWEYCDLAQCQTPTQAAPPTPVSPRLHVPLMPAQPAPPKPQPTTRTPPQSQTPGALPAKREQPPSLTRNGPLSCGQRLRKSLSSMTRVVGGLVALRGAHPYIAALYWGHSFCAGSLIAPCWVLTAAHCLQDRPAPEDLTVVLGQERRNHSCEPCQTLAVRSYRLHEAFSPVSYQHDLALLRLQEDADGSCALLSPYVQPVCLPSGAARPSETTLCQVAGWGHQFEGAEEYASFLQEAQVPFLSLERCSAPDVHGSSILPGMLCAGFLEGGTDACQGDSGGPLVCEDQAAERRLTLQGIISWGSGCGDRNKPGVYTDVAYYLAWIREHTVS
Nature of the assay: Inhibition of factor 12a (unknown origin) using Ac-QRFRpNA as substrate incubated for 30 mins measured for 7 mins by morrison plot analysis.

Assay [1] addresses Tissue-type plasminogen activator (Homo sapiens, UniProt P00750). Nature of the assay: Inhibition of tPA (unknown origin) incubated for 30 mins measured for 7 mins by morrison plot analysis.
The target of another assay is Plasminogen (Homo sapiens, UniProt P00747). Nature of the assay: Inhibition of plasmin (unknown origin) using Ac-RM(O2)YRpNA as substrate incubated for 30 mins measured for 7 mins by morrison plot analysis.
For a further assay, the target named is Coagulation factor X (Homo sapiens, UniProt P00742). Nature of the assay: Inhibition of factor 10a (unknown origin) using Ac-QRSRpNA as substrate incubated for 30 mins measured for 7 mins by morrison plot analysis.
For assay [2], the target named is Urokinase-type plasminogen activator (Homo sapiens, UniProt P00749). Nature of the assay: Inhibition of uPA (unknown origin) incubated for 30 mins measured for 7 mins by morrison plot analysis.
Another assay has as its target Prothrombin (Homo sapiens, UniProt P00734). Nature of the assay: Inhibition of thrombin (unknown origin) using Ac-ATPRpNA as substrate incubated for 30 mins measured for 7 mins by morrison plot analysis.

For seven molecules, Ki results are on record in ChEMBL document CHEMBL4428052, “Substrate-Guided Design of Selective FXIIa Inhibitors Based on the Plant-Derived Momordica cochinchinensis Trypsin Inhibitor-II (MCoTI-II) Scaffold” (J Med Chem, 2016).

Bounds are passed on as bounds.

Chain of Tissue-type plasminogen activator (P00750 whole entry): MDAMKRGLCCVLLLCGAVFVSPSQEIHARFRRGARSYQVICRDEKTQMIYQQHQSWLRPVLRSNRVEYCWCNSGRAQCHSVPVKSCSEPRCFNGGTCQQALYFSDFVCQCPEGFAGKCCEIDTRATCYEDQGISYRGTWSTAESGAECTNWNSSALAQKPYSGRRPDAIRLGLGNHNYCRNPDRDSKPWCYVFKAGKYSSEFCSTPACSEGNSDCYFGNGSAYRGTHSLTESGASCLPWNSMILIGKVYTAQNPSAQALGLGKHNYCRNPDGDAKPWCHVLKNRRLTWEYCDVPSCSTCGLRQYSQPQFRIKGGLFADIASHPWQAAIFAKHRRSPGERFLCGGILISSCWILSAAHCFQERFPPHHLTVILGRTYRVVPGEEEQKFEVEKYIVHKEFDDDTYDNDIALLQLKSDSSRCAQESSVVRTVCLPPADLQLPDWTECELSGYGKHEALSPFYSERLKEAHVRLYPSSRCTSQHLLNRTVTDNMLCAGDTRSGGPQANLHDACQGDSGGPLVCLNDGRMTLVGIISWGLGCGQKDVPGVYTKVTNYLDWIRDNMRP
Chain of Plasminogen (P00747 97-580 limits assumed): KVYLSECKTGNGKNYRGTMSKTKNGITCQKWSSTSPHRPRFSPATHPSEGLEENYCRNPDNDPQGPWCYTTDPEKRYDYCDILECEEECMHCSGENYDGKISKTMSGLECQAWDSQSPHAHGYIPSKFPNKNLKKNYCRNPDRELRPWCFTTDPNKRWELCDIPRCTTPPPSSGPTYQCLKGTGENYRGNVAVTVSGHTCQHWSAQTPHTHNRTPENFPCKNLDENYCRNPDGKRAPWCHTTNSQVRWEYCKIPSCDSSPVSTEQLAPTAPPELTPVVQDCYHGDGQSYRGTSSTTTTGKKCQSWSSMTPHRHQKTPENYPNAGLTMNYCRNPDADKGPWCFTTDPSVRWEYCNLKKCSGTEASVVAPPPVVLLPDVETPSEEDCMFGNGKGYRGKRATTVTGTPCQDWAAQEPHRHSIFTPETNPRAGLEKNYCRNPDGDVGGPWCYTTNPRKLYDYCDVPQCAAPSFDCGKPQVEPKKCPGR
Chain of Plasminogen (P00747 581-810 limits assumed): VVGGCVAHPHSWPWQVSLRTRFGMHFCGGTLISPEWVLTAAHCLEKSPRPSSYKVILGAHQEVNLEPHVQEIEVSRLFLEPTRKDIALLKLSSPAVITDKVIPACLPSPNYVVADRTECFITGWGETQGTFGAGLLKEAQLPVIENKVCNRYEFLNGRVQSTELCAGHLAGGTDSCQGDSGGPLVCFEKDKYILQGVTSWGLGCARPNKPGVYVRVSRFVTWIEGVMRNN
Chain of Coagulation factor XI (P03951 19-387 limits assumed): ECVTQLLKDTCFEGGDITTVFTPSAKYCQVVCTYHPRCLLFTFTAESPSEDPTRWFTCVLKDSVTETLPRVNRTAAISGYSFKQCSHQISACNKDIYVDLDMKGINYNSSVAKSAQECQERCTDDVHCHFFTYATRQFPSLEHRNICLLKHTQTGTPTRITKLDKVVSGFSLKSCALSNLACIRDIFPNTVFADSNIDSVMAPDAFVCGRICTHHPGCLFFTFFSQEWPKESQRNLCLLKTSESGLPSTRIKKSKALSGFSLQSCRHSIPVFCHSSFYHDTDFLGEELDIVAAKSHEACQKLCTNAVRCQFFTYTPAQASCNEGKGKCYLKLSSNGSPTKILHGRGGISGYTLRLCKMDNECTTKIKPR
Chain of Coagulation factor XI (P03951 388-625 limits assumed): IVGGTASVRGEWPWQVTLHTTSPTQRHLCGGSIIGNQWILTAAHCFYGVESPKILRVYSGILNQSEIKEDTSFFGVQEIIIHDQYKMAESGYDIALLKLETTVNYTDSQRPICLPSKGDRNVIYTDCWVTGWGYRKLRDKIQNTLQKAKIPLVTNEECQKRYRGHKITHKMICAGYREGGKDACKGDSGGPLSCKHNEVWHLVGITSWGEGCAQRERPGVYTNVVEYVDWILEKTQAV
Chain of Coagulation factor IX (P00740 47-191 limits assumed): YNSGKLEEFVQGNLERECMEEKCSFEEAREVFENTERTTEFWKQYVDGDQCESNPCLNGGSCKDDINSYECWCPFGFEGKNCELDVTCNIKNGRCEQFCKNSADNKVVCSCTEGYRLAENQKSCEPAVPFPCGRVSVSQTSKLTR
Chain of Coagulation factor IX (P00740 227-461 limits assumed): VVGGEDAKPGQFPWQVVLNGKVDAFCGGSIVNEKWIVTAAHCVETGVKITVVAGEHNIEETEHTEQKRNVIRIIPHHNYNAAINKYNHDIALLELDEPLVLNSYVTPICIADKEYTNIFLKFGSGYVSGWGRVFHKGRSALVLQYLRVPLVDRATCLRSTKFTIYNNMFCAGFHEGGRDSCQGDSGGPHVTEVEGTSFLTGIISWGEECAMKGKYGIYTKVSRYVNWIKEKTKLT
Chain of Plasma kallikrein (P03952 20-390 limits assumed): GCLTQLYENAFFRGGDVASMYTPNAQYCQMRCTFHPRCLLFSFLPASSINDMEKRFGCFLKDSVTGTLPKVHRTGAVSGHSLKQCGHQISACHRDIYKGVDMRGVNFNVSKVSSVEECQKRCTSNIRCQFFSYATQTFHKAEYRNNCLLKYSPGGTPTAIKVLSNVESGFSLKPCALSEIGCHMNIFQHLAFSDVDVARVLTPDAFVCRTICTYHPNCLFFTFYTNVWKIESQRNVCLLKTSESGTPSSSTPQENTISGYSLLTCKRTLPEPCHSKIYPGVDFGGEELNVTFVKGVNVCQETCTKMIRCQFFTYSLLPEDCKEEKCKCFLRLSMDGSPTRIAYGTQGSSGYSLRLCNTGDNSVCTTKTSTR
Chain of Plasma kallikrein (P03952 391-638 limits assumed): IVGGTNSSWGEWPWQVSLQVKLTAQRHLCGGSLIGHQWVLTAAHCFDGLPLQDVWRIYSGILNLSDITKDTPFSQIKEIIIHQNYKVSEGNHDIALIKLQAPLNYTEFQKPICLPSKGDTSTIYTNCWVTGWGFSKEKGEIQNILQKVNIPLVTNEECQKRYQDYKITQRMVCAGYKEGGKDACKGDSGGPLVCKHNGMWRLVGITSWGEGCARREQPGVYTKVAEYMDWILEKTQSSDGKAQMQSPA
Chain of Coagulation factor X (P00742 41-179 limits assumed): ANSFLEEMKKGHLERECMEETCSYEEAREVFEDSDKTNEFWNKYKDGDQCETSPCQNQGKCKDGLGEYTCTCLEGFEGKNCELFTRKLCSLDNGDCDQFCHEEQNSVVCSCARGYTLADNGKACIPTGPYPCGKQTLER
Chain of Coagulation factor X (P00742 235-488 limits assumed): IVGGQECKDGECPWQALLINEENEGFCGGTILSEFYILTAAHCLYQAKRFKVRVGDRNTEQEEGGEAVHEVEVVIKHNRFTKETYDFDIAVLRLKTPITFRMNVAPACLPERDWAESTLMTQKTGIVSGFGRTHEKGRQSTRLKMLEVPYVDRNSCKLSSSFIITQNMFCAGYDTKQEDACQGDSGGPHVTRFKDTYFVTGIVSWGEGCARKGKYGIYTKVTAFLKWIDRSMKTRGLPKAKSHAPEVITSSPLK

As for `CC[C@H](C)[C@@H]1NC(=O)[C@@H]2CSSC[C@H](NC(=O)[C@@H](NC(=O)CNC(=O)CN)C(C)C)C(=O)N3CCC[C@H]3C(=O)N[C@@H](CCCCN)C(=O)N[C@@H]([C@@H](C)CC)C(=O)N[C@@H](CC(C)C)C(=O)N[C@@H](CCCCN)C(=O)N[C@@H](CCCCN)C(=O)N[C@H]3CSSC[C@H](NC1=O)C(=O)N[C@@H](CCCNC(=N)N)C(=O)NCC(=O)N[C@@H](CC(N)=O)C(=O)NCC(=O)N[C@@H](Cc1ccc(O)cc1)C(=O)N[C@H](C(=O)NCC(=O)N[C@@H](CO)C(=O)NCC(=O)N[C@@H](CO)C(=O)N[C@@H](CC(=O)O)C(=O)O)CSSC[C@H](NC(=O)[C@H](CC(=O)O)NC(=O)[C@H](CO)NC(=O)[C@H](CC(=O)O)NC(=O)[C@H](CCCNC(=N)N)NC(=O)[C@H](CCCNC(=N)N)NC3=O)C(=O)N1CCC[C@H]1C(=O)NCC(=O)N[C@@H](C)C(=O)N2`, the Ki was 0.00016 µM on Trypsin; over 10 µM at Coagulation factor XI; over 10 µM on Plasma kallikrein; over 10 µM at Coagulation factor IX; 0.75 µM at Coagulation factor XII; over 10 µM in assay [1]. The molecule also came in with a Ki on Plasminogen of 0.028 µM.

`CC[C@H](C)[C@@H]1NC(=O)[C@@H]2CSSC[C@H](NC(=O)[C@H](CCC(N)=O)NC(=O)CNC(=O)[C@@H](N)CCCCN)C(=O)N[C@@H](Cc3ccccc3)C(=O)N[C@@H](CCCNC(=N)N)C(=O)N[C@@H]([C@@H](C)CC)C(=O)N[C@@H](Cc3c[nH]c4ccccc34)C(=O)N[C@@H](CCCCN)C(=O)N[C@@H](CCCCN)C(=O)N[C@H]3CSSC[C@H](NC1=O)C(=O)N[C@@H](CCCNC(=N)N)C(=O)NCC(=O)N[C@@H](CC(N)=O)C(=O)NCC(=O)N[C@@H](Cc1ccc(O)cc1)C(=O)N[C@H](C(=O)NCC(=O)N[C@@H](CO)C(=O)NCC(=O)N[C@@H](CO)C(=O)N[C@@H](CC(=O)O)C(=O)O)CSSC[C@H](NC(=O)[C@H](CC(=O)O)NC(=O)[C@H](CO)NC(=O)[C@H](CC(=O)O)NC(=O)[C@H](CCCNC(=N)N)NC(=O)[C@H](CCCNC(=N)N)NC3=O)C(=O)N1CCC[C@H]1C(=O)NCC(=O)N[C@@H](C)C(=O)N2`: the Ki at Trypsin was 6.24 µM; at Coagulation factor XI it was over 100 µM; at Plasma kallikrein, over 50 µM; on Coagulation factor IX, over 50 µM; at Coagulation factor XII, 0.49 µM; in [1] it was over 50 µM. Further, the Ki on Plasminogen was 4.54 µM.

In the case of `CC[C@H](C)[C@@H]1NC(=O)[C@@H]2CSSC[C@H](NC(=O)[C@H](CCC(N)=O)NC(=O)CNC(=O)CN)C(=O)N[C@@H](Cc3ccccc3)C(=O)N[C@@H](CCCNC(=N)N)C(=O)N[C@@H]([C@@H](C)CC)C(=O)N[C@@H](Cc3c[nH]c4ccccc34)C(=O)N[C@@H](CCCCN)C(=O)N[C@@H](CCCCN)C(=O)N[C@H]3CSSC[C@H](NC1=O)C(=O)N[C@@H](CCCNC(=N)N)C(=O)NCC(=O)N[C@@H](CC(N)=O)C(=O)NCC(=O)N[C@@H](Cc1ccc(O)cc1)C(=O)N[C@H](C(=O)NCC(=O)N[C@@H](CO)C(=O)NCC(=O)N[C@@H](CO)C(=O)N[C@@H](CC(=O)O)C(=O)O)CSSC[C@H](NC(=O)[C@H](CC(=O)O)NC(=O)[C@H](CO)NC(=O)[C@H](CC(=O)O)NC(=O)[C@H](CCCNC(=N)N)NC(=O)[C@H](CCCNC(=N)N)NC3=O)C(=O)N1CCC[C@H]1C(=O)NCC(=O)N[C@@H](C)C(=O)N2`, the Ki was 2.24 µM at Trypsin; over 10 µM on Coagulation factor XI; over 10 µM at Plasma kallikrein; over 10 µM on Coagulation factor IX; 0.51 µM on Coagulation factor XII; over 10 µM in assay [1]. Besides, on Plasminogen, the affinity, expressed as Ki, was 1.5 µM.

`CC[C@H](C)[C@@H]1NC(=O)[C@H](CCCNC(=N)N)NC(=O)[C@H](Cc2ccccc2)NC(=O)[C@H](NC(=O)[C@H](CCC(N)=O)NC(=O)CNC(=O)CN)CSSC[C@H]2NC(=O)[C@H](C)NC(=O)CNC(=O)[C@@H]3CCCN3C(=O)[C@@H]3CSSC[C@H](C(=O)NCC(=O)N[C@@H](CO)C(=O)NCC(=O)N[C@@H](CO)C(=O)N[C@@H](CC(=O)O)C(=O)O)NC(=O)[C@H](Cc4ccc(O)cc4)NC(=O)CNC(=O)[C@H](CC(N)=O)NC(=O)CNC(=O)[C@H](CCCNC(=N)N)NC(=O)[C@H](CSSC[C@H](NC(=O)[C@H](CCCCN)NC(=O)[C@H](CCCCN)NC(=O)[C@H](Cc4c[nH]c5ccccc45)NC1=O)C(=O)N[C@@H](CCCNC(=N)N)C(=O)N[C@@H](CCCNC(=N)N)C(=O)N[C@@H](CC(=O)O)C(=O)N[C@@H](CO)C(=O)N[C@@H](CC(=O)O)C(=O)N3)NC(=O)[C@H]([C@@H](C)CC)NC2=O`: the results for the Ki (at Coagulation factor X; in assay [2]; on Prothrombin) were over 100 µM, over 10 µM and over 10 µM, respectively.

Regarding `CC[C@H](C)[C@@H]1NC(=O)[C@@H]2CSSC[C@H](NC(=O)[C@H](CCC(N)=O)NC(=O)CNC(=O)CN)C(=O)N[C@@H](CO)C(=O)N[C@@H](CCCNC(=N)N)C(=O)N[C@@H]([C@@H](C)CC)C(=O)N[C@@H](CC(C)C)C(=O)N[C@@H](CCCCN)C(=O)N[C@@H](CCCCN)C(=O)N[C@H]3CSSC[C@H](NC1=O)C(=O)N[C@@H](CCCNC(=N)N)C(=O)NCC(=O)N[C@@H](CC(N)=O)C(=O)NCC(=O)N[C@@H](Cc1ccc(O)cc1)C(=O)N[C@H](C(=O)NCC(=O)N[C@@H](CO)C(=O)NCC(=O)N[C@@H](CO)C(=O)N[C@@H](CC(=O)O)C(=O)O)CSSC[C@H](NC(=O)[C@H](CC(=O)O)NC(=O)[C@H](CO)NC(=O)[C@H](CC(=O)O)NC(=O)[C@H](CCCNC(=N)N)NC(=O)[C@H](CCCNC(=N)N)NC3=O)C(=O)N1CCC[C@H]1C(=O)NCC(=O)N[C@@H](C)C(=O)N2`, the Ki is over 10 µM on Trypsin; over 10 µM on Coagulation factor XI; over 10 µM on Plasma kallikrein; over 10 µM at Coagulation factor IX; 2.16 µM at Coagulation factor XII; over 10 µM in [1]. The molecule further came in with a Ki on Plasminogen of over 10 µM.

In the case of `CC[C@H](C)[C@@H]1NC(=O)[C@@H]2CSSC[C@H](NC(=O)[C@H](CCC(N)=O)NC(=O)CNC(=O)CN)C(=O)N[C@@H](Cc3ccccc3)C(=O)N[C@@H](CCCNC(=N)N)C(=O)N[C@@H]([C@@H](C)CC)C(=O)N[C@@H](CC(C)C)C(=O)N[C@@H](CCCCN)C(=O)N[C@@H](CCCCN)C(=O)N[C@H]3CSSC[C@H](NC1=O)C(=O)N[C@@H](CCCNC(=N)N)C(=O)NCC(=O)N[C@@H](CC(N)=O)C(=O)NCC(=O)N[C@@H](Cc1ccc(O)cc1)C(=O)N[C@H](C(=O)NCC(=O)N[C@@H](CO)C(=O)NCC(=O)N[C@@H](CO)C(=O)N[C@@H](CC(=O)O)C(=O)O)CSSC[C@H](NC(=O)[C@H](CC(=O)O)NC(=O)[C@H](CO)NC(=O)[C@H](CC(=O)O)NC(=O)[C@H](CCCNC(=N)N)NC(=O)[C@H](CCCNC(=N)N)NC3=O)C(=O)N1CCC[C@H]1C(=O)NCC(=O)N[C@@H](C)C(=O)N2`, the Ki is 0.0069 µM on Trypsin; over 10 µM at Coagulation factor XI; over 10 µM at Plasma kallikrein; over 10 µM at Coagulation factor IX; 0.11 µM at Coagulation factor XII; over 10 µM in assay [1]. On Plasminogen, this molecule returned a Ki of 0.27 µM.

On to `CC[C@H](C)[C@@H]1NC(=O)[C@H](CCCNC(=N)N)NC(=O)[C@H](CO)NC(=O)[C@H](NC(=O)[C@H](CCC(N)=O)NC(=O)CNC(=O)CN)CSSC[C@H]2NC(=O)[C@H](C)NC(=O)CNC(=O)[C@@H]3CCCN3C(=O)[C@@H]3CSSC[C@H](C(=O)NCC(=O)N[C@@H](CO)C(=O)NCC(=O)N[C@@H](CO)C(=O)N[C@@H](CC(=O)O)C(=O)O)NC(=O)[C@H](Cc4ccc(O)cc4)NC(=O)CNC(=O)[C@H](CC(N)=O)NC(=O)CNC(=O)[C@H](CCCNC(=N)N)NC(=O)[C@H](CSSC[C@H](NC(=O)[C@H](CCCCN)NC(=O)[C@H](CCCCN)NC(=O)[C@H](CC(C)C)NC1=O)C(=O)N[C@@H](CCCNC(=N)N)C(=O)N[C@@H](CCCNC(=N)N)C(=O)N[C@@H](CC(=O)O)C(=O)N[C@@H](CO)C(=O)N[C@@H](CC(=O)O)C(=O)N3)NC(=O)[C@H]([C@@H](C)CC)NC2=O`, for which the Ki on Coagulation factor X is 96 µM; in assay [2], over 10 µM; at Prothrombin it was over 10 µM.

For orientation: Ki means a dissociation constant, usually derived from enzyme kinetics or from competition with a known ligand.
